Earlier results, collected in US20100239661A1, “PHARMACEUTICAL COMPOSITIONS OF URSODIOL” (priority 2006, published 2010).
Where two headings read alike, the source gives them in different places.

Experiments:
[1] = unconjugated ursodiol, healthy subjects
[2] = not given; remark: listed apart in the source
[3] = for oral absorption: following oral administration

solubility (in chloroform): slightly soluble
solubility (in ethanol): freely soluble
solubility (in ether): sparingly soluble
solubility (in glacial acetic acid): freely soluble
solubility (in water): practically insoluble
bound to plasma protein [1]: at least 70%
solubility (characterisation) [2]: low solubility
share of biliary and plasma bile acids ([3]; chronic dose of 13 to 15 mg/kg/day): 30-50%
oral absorption [3]: rapid and complete
oral absorption ([3]; listed as ursodiol): incomplete
hepatic extraction ([3]; once absorbed, in the absence of liver disease): about 50%
urinary excretion ([3]; with treatment, except in severe cholestatic liver disease): less than 1%
Structure (SMILES): C[C@H](CCC(=O)O)[C@H]1CC[C@H]2[C@@H]3[C@@H](O)C[C@@H]4C[C@H](O)CC[C@]4(C)[C@H]3CC[C@]12C [Ursodiol, 3α,7β-dihydroxy-5β-cholan-24-oic acid]
